# Experimental data taken from patent publication US20250243180A1, “TARGETED PROTEIN DEGRADATION” (Monte Rosa Therapeutics AG, priority 2023, published 2025).
# Like-named read-outs stand apart in the source and are kept apart here.
# Columns and labels:
# [1] = biological target: CRBN-DDB1 (Homo sapiens (Human), UniProt Q96SW2); assay: Compound binding to CRBN by HTRF assay
# Procedure, shortened: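 Ki calculated via Cheng-Prusoff from geometric-mean EC50 values, after normalizing the HTRF ratio to lenalidomide (active) and DMSO (neutral) controls. Compounds (11 points, 1:3 steps) incubated 30 min at ambient temperature with CRBN-DDB1 2.5 nM, anti-His Tb cryptate and Cy5-thalidomide tracer 100 nM.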
# [2] = biological target: NEK7 (Homo sapiens (Human), UniProt Q8TDX7+Q96SW2); assay: NEK7 NanoBiT degradation assay in Cal51 NEK7 NanoBiT cell line; format: cell-based; conditions: Cal51 NEK7 NanoBiT cells, 24 hours; for Dmax: CAL-51
# Procedure, shortened: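 EC50 comes from a 4-parameter fit of control-normalized luminescence. The luminescence reports HiBiT-NEK7 (endogenous knock-in) complemented by stably expressed LgBiT in Cal51 cells after 24 h compound exposure at 37 °C. Final concentrations ran 1 μM to 0.05 nM, with Endurazine substrate present in the medium throughout.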
# [3] = NEK7 degradation, read-out: NanoBiT Dmax
# [4] = NEK7 degradation, read-out: NanoBiT DC50
# NEK7, sequence (Q8TDX7 whole entry): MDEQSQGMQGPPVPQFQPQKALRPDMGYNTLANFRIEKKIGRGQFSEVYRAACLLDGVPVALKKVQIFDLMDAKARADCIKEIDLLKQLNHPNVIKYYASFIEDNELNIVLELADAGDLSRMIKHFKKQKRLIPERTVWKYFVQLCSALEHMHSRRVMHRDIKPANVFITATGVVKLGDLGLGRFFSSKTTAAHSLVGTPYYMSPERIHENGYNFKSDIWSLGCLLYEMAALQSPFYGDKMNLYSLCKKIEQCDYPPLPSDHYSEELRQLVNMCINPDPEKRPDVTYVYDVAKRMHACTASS
# NEK7, sequence (Q96SW2 whole entry): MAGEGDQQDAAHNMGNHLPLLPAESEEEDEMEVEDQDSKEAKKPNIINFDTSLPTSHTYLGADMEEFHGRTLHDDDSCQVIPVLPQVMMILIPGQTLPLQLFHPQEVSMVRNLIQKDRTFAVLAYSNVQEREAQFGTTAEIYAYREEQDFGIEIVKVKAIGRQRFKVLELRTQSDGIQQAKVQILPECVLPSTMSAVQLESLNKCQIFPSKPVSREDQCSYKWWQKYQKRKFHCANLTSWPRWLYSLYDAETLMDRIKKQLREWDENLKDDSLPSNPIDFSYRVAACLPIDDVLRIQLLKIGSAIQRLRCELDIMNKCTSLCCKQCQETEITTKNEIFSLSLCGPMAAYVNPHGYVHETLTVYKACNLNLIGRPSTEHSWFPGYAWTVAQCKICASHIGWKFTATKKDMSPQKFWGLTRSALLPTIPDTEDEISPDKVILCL
# NEK7, sequence (Q16531 2-1140 partner): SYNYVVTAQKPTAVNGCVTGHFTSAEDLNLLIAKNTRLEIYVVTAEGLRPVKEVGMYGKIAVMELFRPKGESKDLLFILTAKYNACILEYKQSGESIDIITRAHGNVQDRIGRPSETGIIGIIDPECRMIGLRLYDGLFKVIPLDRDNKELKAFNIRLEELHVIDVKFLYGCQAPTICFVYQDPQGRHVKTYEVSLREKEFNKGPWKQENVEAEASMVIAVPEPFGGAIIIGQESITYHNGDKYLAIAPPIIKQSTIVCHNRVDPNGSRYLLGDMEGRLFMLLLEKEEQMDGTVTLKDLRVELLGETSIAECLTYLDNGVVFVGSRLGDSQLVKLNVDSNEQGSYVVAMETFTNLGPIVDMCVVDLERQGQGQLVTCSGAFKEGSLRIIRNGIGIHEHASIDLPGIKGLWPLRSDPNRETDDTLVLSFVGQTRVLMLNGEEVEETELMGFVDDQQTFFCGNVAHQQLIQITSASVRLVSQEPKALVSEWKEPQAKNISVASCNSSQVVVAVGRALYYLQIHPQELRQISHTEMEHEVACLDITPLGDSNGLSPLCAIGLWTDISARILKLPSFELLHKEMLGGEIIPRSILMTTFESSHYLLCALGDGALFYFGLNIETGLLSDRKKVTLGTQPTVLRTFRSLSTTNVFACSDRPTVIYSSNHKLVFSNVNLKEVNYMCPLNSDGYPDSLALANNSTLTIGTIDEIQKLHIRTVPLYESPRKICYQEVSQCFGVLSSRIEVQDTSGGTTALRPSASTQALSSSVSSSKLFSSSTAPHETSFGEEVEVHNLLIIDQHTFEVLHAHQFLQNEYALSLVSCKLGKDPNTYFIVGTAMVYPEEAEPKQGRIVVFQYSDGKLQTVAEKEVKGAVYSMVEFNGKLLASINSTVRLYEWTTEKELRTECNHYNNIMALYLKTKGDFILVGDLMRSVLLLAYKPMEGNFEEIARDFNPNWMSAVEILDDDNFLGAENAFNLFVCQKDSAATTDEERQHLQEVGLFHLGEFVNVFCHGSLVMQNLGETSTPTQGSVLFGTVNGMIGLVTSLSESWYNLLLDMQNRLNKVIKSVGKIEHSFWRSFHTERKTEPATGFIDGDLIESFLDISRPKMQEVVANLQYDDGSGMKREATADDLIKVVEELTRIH
# CRBN-DDB1, sequence (Q96SW2 whole entry): as the sequence (Q96SW2 whole entry) above
# CRBN-DDB1, sequence (Q16531 whole entry partner): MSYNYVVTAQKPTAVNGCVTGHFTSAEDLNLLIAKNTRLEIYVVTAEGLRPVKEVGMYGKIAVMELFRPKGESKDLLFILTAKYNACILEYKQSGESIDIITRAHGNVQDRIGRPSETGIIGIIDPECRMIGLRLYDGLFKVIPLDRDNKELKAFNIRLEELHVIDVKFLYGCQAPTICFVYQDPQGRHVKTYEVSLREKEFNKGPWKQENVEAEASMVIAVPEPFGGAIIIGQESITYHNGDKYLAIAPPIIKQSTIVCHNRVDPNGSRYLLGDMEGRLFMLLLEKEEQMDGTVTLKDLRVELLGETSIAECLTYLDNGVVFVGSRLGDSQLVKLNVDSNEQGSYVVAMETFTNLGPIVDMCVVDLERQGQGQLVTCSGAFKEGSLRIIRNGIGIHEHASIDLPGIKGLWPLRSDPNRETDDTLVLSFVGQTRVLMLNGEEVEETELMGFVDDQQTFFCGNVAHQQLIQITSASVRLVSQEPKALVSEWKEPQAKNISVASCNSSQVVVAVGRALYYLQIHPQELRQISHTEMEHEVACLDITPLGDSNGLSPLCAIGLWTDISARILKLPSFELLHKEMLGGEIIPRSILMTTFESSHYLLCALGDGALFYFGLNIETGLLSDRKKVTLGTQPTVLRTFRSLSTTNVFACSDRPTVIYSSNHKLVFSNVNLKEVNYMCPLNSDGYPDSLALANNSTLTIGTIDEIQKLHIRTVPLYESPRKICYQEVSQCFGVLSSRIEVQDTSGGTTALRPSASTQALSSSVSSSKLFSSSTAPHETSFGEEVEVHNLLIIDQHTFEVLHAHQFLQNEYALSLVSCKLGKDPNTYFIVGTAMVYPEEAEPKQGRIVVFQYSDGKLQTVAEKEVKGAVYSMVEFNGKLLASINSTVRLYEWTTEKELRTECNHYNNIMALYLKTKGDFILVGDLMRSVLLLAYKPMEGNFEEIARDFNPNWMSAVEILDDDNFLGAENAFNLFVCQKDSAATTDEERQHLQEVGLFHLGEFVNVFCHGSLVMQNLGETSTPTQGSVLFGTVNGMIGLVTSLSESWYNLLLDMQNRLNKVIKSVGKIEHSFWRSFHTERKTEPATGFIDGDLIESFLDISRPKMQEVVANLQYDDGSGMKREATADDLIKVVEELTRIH
Compound,EC50 [1],"EC50 ([1]; HTRF class, Cereblon binding)",Dmax ([2]; read-out: NEK7 NanoBiT Dmax),"Dmax [2, 3]",DC50 ([2]; read-out: NEK7 NanoBiT DC50),"DC50 [2, 4]"
CC(C)(C(=O)NCc1cc(F)c(C2CCC(=O)NC2=O)c(Cl)c1)c1ccncc1 (stereo not drawn) [Compound 106],240 nM,100 to 1000 nM,80%,> 75%,26 nM,≤ 100 nM
CC(C)(C(=O)NCc1cc(Cl)c(C2CCC(=O)NC2=O)c(Cl)c1)c1ncc(CC(F)F)cn1 (stereo not drawn) [Compound 186],90 nM,≤ 100 nM,65%,50 to 75%,90 nM,≤ 100 nM
"Cc1cnc(C(C)(C)C(=O)NCc2cc(F)c(C3CCC(=O)NC3=O)c(Cl)c2)o1 (stereo not drawn) [Compound 270, N-(3-chloro-4-(2,6-dioxopiperidin-3-yl)-5-fluorobenzyl)-2-methyl-2-(5-methyloxazol-2-yl)propanamide]",190 nM,100 to 1000 nM,72%,50 to 75%,73 nM,≤ 100 nM
CC(C)(C(=O)NCc1cc(Cl)c(C2CCC(=O)NC2=O)c(Cl)c1)c1cnccn1 (stereo not drawn) [Compound 161],230 nM,100 to 1000 nM,69%,50 to 75%,54 nM,≤ 100 nM
CC(C)(C(=O)NCc1cc(Cl)c(C2CCC(=O)NC2=O)c(Cl)c1)c1nc(C2CC2)co1 (stereo not drawn) [Compound 193],80 nM,≤ 100 nM,87%,> 75%,10 nM,≤ 100 nM
Cn1cc(C(C)(C)C(=O)NCc2cc(Cl)c(C3CCC(=O)NC3=O)c(Cl)c2)ccc1=O (stereo not drawn) [Compound 67],220 nM,100 to 1000 nM,74%,50 to 75%,95 nM,≤ 100 nM
"COc1conc1C(C)(C)C(=O)NCc1cc(Cl)c(C2CCC(=O)NC2=O)c(Cl)c1 (stereo not drawn) [Compound 227, N-(3,5-dichloro-4-(2,6-dioxopiperidin-3-yl)benzyl)-2-(4-methoxyisoxazol-3-yl)-2-methylpropanamide]",110 nM,100 to 1000 nM,92%,> 75%,6 nM,≤ 100 nM
CC(C)(C(=O)NCc1cc(Cl)c(C2CCC(=O)NC2=O)c(Cl)c1)c1ncc(F)cn1 (stereo not drawn) [Compound 11],190 nM,100 to 1000 nM,90%,> 75%,9 nM,≤ 100 nM
CN(C)c1ccc(C(C)(C)C(=O)NCc2cc(Cl)c(C3CCC(=O)NC3=O)c(Cl)c2)cc1 (stereo not drawn) [Compound 71],140 nM,100 to 1000 nM,90%,> 75%,9 nM,≤ 100 nM
"CC(C)(C(=O)NCc1cc(Cl)c([C@@H]2CCC(=O)NC2=O)c(Cl)c1)c1ncc(C#N)cn1 (single isomer, unassigned) [Compound 152]",240 nM,100 to 1000 nM,95%,> 75%,2 nM,≤ 100 nM
"CC(C)(C(=O)NCc1cc(Cl)c(C2CCC(=O)NC2=O)c(Cl)c1)c1ccc(C(F)F)cn1 (stereo not drawn) [Compound 4, N-(3,5-dichloro-4-(2,6-dioxopiperidin-3-yl)benzyl)-2-(5-(difluoromethyl)pyridin-2-yl)-2-methylpropanamide]",120 nM,100 to 1000 nM,94%,> 75%,3 nM,≤ 100 nM
COc1nccc(C(C)(C)C(=O)NCc2cc(Cl)c(C3CCC(=O)NC3=O)c(Cl)c2)n1 (stereo not drawn) [Compound 46],50 nM,≤ 100 nM,71%,50 to 75%,61 nM,≤ 100 nM
CC(C)(C(=O)NCc1cc(F)c(C2CCC(=O)NC2=O)c(Cl)c1)c1nocc1C(F)(F)F (stereo not drawn) [Compound 278],190 nM,100 to 1000 nM,71%,50 to 75%,76 nM,≤ 100 nM
CC(C)(C(=O)NCc1cc(Cl)c(C2CCC(=O)NC2=O)c(Cl)c1)c1ccncc1F (stereo not drawn) [Compound 88],110 nM,100 to 1000 nM,93%,> 75%,4 nM,≤ 100 nM
Cc1coc(C(C)(C)C(=O)NCc2cc(Cl)c(C3CCC(=O)NC3=O)c(Cl)c2)n1 (stereo not drawn) [Compound 197],120 nM,100 to 1000 nM,87%,> 75%,13 nM,≤ 100 nM
"CC(C)(C(=O)NCc1cc(Cl)c(C2CCC(=O)NC2=O)c(Cl)c1)c1ccc(OC(F)(F)F)nn1 (stereo not drawn) [Compound 223, N-(3,5-dichloro-4-(2,6-dioxopiperidin-3-yl)benzyl)-2-methyl-2-(6-(trifluoromethoxy)pyridazin-3-yl)propanamide]",90 nM,≤ 100 nM,91%,> 75%,8 nM,≤ 100 nM
CC(C)(C(=O)NCc1cc(Cl)c(C2CCC(=O)NC2=O)c(Cl)c1)c1ccc2[nH]ncc2c1 (stereo not drawn) [Compound 70],60 nM,≤ 100 nM,97%,> 75%,0.5 nM,≤ 100 nM
Cc1cc(C(C)(C)C(=O)NCc2cc(Cl)c(C3CCC(=O)NC3=O)c(Cl)c2)ncn1 (stereo not drawn) [Compound 173],230 nM,100 to 1000 nM,85%,> 75%,19 nM,≤ 100 nM
Cn1c(=O)[nH]c2cc(C(C)(C)C(=O)NCc3cc(Cl)c(C4CCC(=O)NC4=O)c(Cl)c3)ccc21 (stereo not drawn) [Compound 72],470 nM,100 to 1000 nM,90%,> 75%,11 nM,≤ 100 nM
"O=C1CCC(c2c(Cl)cc(CNC(=O)C3(c4ccccc4)CCOC3)cc2Cl)C(=O)N1 (stereo not drawn) [Compound 127, N-(3,5-dichloro-4-(2,6-dioxopiperidin-3-yl)benzyl)-3-phenyltetrahydrofuran-3-carboxamide]",40 nM,≤ 100 nM,90%,> 75%,5 nM,≤ 100 nM
"Cc1nnc(C(C)(C)C(=O)NCc2cc(Cl)c([C@@H]3CCC(=O)NC3=O)c(Cl)c2)o1 (single isomer, unassigned) [Compound 224]",90 nM,≤ 100 nM,77%,> 75%,32 nM,≤ 100 nM
Cn1ccc2cc(C(C)(C)C(=O)NCc3cc(Cl)c(C4CCC(=O)NC4=O)c(Cl)c3)ccc21 (stereo not drawn) [Compound 90],50 nM,≤ 100 nM,94%,> 75%,4 nM,≤ 100 nM
CC(C)(C(=O)NCc1cc(Cl)c(C2CCC(=O)NC2=O)c(Cl)c1)c1ccnc(C#N)c1 (stereo not drawn) [Compound 92],180 nM,100 to 1000 nM,71%,50 to 75%,65 nM,≤ 100 nM
CC(C)(C(=O)NCc1cc(Cl)c(C2CCC(=O)NC2=O)c(Cl)c1)c1cnc(C(F)F)cn1 (stereo not drawn) [Compound 196],310 nM,100 to 1000 nM,90%,> 75%,9 nM,≤ 100 nM
